Data as given in the NIST ThermoML archive (doi:10.1021/je4009987).

Assay: mn = molality of the nth substance listed, in mol/kg
Details: 101 kPa, Liquid; for speed of sound: Sing-around technique in a fixed-path interferometer; for mass density: Vibrating tube method

CCOC(=O)CC(C)=O [ethyl 3-oxobutanoate] + O
Details | mass density, 288.15 K [kg/m3] | mass density, 293.15 K [kg/m3] | mass density, 298.15 K [kg/m3] | mass density, 303.15 K [kg/m3] | mass density, 308.15 K [kg/m3] | speed of sound, 288.15 K [m/s] | speed of sound, 293.15 K [m/s] | speed of sound, 298.15 K [m/s] | speed of sound, 303.15 K [m/s] | speed of sound, 308.15 K [m/s]
m1 = 0.076 | 1000.05 | 999.128 | 997.91 | 996.474 | 994.809 | 1472.6 | 1487.8 | 1501.3 | 1513 | 1523.1
m1 = 0.1625 | 1001.1 | 1000.13 | 998.838 | 997.358 | 995.64 | 1479.2 | 1493.6 | 1506.4 | 1517.4 | 1526.9
m1 = 0.2495 | 1002.14 | 1001.1 | 999.76 | 998.22 | 996.445 | 1485.5 | 1499.2 | 1511.2 | 1521.6 | 1530.4
m1 = 0.3767 | 1003.62 | 1002.48 | 1001.05 | 999.44 | 997.59 | 1494.1 | 1506.7 | 1517.7 | 1527.1 | 1535
m1 = 0.4725 | 1004.7 | 1003.48 | 1002 | 1000.32 | 998.41 | 1500 | 1511.7 | 1522 | 1530.8 | 1538.1
m1 = 0.5324 | 1005.38 | 1004.1 | 1002.58 | 1000.86 | 998.9 | 1503.4 | 1514.7 | 1524.5 | 1532.9 | 1539.8
m1 = 0.6848 | 1007.03 | 1005.6 | 1004 | 1002.18 | 1000.12 | 1511.6 | 1521.7 | 1530.5 | 1537.8 | 1543.7
m1 = 0.7843 | 1008.1 | 1006.56 | 1004.9 | 1003.01 | 1000.9 | 1516.3 | 1525.7 | 1533.7 | 1540.4 | 1545.8
m1 = 0.9019 | 1009.31 | 1007.65 | 1005.93 | 1003.94 | 1001.76 | 1521.4 | 1529.9 | 1537.2 | 1543.1 | 1547.8

COC(=O)CC(C)=O [methyl 3-oxobutanoate] + O
Details | mass density, 288.15 K [kg/m3] | mass density, 293.15 K [kg/m3] | mass density, 298.15 K [kg/m3] | mass density, 303.15 K [kg/m3] | mass density, 308.15 K [kg/m3] | speed of sound, 288.15 K [m/s] | speed of sound, 293.15 K [m/s] | speed of sound, 298.15 K [m/s] | speed of sound, 303.15 K [m/s] | speed of sound, 308.15 K [m/s]
m1 = 0.0809 | 1000.36 | 999.43 | 998.205 | 996.78 | 995.12 | 1472.5 | 1487.7 | 1501.3 | 1513.1 | 1523.2
m1 = 0.1654 | 1001.65 | 1000.66 | 999.37 | 997.9 | 996.2 | 1477.3 | 1491.9 | 1504.8 | 1516.1 | 1525.7
m1 = 0.285 | 1003.44 | 1002.36 | 1001 | 999.454 | 997.68 | 1484.7 | 1498.3 | 1510.5 | 1521 | 1529.9
m1 = 0.386 | 1004.9 | 1003.75 | 1002.33 | 1000.73 | 998.91 | 1490.1 | 1503.1 | 1514.6 | 1524.4 | 1532.7
m1 = 0.4607 | 1005.98 | 1004.75 | 1003.3 | 1001.65 | 999.79 | 1494.2 | 1506.6 | 1517.6 | 1527 | 1534.9
m1 = 0.5604 | 1007.37 | 1006.06 | 1004.56 | 1002.85 | 1000.94 | 1499.6 | 1511.4 | 1521.7 | 1530.5 | 1537.9
m1 = 0.6367 | 1008.4 | 1007.01 | 1005.53 | 1003.74 | 1001.79 | 1503 | 1514.2 | 1524.1 | 1532.5 | 1539.5
m1 = 0.7871 | 1010.4 | 1008.9 | 1007.35 | 1005.47 | 1003.45 | 1509.8 | 1520.2 | 1529.1 | 1536.7 | 1542.9
m1 = 0.8429 | 1011.13 | 1009.58 | 1008 | 1006.11 | 1004.04 | 1512.2 | 1522.2 | 1530.9 | 1538.1 | 1544
